What is called Km is the substrate concentration at which the rate is half of its maximum.

Results on 4 compounds are retold here after US20090136979A1, “Class IIA Histone Deacetylase (HDAC) Substrate” (ISTITUTO DI RICERCHE DI BIOLOGIA MOLECOLARE P. ANG, priority 2005, published 2009).

One assay deals with HDAC from rat liver. Particulars: cited from earlier work.
The target of assay [1] is T1, HDAC4-CD (Homo sapiens, UniProt P56524).
T1 construct: The HDAC4 C-terminal region from T-653 to L-1084; 6xHis; made in house; host or cells: E. coli BL21 Star (DE3)
T1 sequence (P56524 653-1084): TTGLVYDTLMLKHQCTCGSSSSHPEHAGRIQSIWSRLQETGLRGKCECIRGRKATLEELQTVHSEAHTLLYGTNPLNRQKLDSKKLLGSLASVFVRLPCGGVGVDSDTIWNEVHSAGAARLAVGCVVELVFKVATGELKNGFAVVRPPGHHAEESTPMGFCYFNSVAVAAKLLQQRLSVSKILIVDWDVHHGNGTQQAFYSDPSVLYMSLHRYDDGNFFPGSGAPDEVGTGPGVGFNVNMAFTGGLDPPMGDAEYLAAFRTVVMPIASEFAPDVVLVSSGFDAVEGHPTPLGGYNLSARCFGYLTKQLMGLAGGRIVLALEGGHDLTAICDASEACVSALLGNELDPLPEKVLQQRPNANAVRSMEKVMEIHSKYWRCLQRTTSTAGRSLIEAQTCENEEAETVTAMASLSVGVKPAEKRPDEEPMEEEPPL
Kind of assay: Inhibition of HDAC4-CD activity on Lys-Trifluoro substrate. The class given is biochemical. Conditions: HDAC4-CD 0.5 nM, FIG. 6.

In assay [2] the target is T2, HDAC4-FLAG (Homo sapiens, UniProt P56524).
T2 construct: the full length HDAC4protein (HDAC4-FLAG) was also analysed; FLAG (C); made in house
T2 sequence (P56524 whole entry): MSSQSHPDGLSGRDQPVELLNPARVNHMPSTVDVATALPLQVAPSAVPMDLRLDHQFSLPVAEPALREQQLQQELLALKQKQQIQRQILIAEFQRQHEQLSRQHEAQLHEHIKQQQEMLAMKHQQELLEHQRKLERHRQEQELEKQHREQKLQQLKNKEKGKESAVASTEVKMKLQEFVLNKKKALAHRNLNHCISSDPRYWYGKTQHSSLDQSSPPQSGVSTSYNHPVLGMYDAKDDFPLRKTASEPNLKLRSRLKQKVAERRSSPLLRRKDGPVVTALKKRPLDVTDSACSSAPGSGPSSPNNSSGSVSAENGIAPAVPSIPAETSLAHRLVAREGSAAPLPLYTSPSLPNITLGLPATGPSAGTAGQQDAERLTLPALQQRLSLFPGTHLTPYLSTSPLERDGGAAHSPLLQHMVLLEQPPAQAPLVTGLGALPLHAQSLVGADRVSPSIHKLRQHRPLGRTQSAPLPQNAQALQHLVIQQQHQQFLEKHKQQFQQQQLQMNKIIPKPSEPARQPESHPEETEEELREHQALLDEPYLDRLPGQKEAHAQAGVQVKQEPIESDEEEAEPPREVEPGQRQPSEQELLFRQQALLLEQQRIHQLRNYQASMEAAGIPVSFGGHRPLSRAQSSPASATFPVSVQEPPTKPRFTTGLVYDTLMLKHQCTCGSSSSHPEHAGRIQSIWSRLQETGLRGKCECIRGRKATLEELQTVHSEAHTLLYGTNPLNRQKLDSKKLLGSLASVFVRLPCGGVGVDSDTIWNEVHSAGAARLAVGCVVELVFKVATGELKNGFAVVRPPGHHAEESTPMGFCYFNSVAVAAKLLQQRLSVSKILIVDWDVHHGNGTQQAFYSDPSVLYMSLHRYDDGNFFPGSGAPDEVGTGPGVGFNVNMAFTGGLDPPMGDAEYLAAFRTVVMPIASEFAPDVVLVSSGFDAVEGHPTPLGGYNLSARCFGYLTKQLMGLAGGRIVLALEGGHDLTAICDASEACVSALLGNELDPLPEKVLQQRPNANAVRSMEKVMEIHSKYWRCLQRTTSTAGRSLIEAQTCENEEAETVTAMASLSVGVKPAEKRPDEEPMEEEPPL
The assay is classed as binding. Particulars: cross-linking assay.

The target in assay [3] is T3, HDAC8 (Homo sapiens, UniProt Q9BY41).
T3 sequence (Q9BY41 1-377): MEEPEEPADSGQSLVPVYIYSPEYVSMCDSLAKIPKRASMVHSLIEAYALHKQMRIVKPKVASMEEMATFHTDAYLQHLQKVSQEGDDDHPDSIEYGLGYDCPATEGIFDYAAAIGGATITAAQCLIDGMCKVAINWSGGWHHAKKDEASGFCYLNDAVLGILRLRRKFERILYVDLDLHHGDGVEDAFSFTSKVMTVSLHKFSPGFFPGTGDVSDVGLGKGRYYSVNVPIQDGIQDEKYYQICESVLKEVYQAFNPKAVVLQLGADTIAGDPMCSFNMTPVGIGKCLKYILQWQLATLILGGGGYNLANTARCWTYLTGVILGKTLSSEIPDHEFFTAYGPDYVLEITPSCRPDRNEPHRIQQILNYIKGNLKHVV
Kind of assay: Activity on Boc-L-Lys(ε-trifluoroacetyl)-MCA compared with Biomol standard substrate, HDAC8. Conditions: HDAC8, FIG. 5. The assay is classed as biochemical. The text has this:
(§1) The activities measured on Boc-L-Lys(ε-trifluoroacetyl)-MCA were compared with activities on the Biomol standard substrate (not shown).

A further assay has as its target T4, HDAC6 (Homo sapiens, UniProt Q9UBN7).
T4 sequence (Q9UBN7 1-1215): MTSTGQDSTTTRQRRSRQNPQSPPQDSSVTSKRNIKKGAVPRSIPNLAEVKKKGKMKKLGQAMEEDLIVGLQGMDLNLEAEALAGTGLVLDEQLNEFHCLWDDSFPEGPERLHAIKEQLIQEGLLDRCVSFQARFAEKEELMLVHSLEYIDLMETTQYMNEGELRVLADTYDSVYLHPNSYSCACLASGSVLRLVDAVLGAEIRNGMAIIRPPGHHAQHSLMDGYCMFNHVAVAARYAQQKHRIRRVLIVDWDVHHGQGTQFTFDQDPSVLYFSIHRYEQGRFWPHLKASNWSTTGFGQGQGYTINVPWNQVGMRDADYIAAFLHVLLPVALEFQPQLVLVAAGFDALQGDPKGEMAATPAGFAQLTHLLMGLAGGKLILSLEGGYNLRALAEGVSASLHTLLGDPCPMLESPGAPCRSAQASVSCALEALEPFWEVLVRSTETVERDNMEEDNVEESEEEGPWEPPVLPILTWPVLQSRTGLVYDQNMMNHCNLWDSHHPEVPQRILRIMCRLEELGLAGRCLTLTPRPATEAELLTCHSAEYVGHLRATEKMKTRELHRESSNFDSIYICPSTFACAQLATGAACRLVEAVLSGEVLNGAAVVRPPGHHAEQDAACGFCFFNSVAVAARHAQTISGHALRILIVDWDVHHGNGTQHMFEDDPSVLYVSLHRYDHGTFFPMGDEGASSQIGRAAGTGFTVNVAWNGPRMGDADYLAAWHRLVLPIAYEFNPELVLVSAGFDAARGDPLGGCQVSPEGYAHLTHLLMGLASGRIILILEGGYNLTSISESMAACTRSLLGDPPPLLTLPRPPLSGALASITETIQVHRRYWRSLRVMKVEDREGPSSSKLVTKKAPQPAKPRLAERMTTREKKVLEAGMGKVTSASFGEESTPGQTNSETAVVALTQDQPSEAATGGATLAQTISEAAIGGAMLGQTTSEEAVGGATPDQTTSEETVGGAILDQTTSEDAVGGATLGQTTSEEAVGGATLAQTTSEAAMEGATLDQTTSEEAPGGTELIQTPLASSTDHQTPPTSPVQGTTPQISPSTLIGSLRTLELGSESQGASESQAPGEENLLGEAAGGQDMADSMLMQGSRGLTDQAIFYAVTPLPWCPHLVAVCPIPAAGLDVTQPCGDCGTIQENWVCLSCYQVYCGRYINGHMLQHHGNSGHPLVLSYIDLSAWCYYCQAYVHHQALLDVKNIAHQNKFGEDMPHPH
Put plainly: Activity on Boc-L-Lys(ε-trifluoroacetyl)-MCA compared with Biomol standard substrate, HDAC6. The assay is classed as biochemical. Conditions: HDAC6, FIG. 5.
Excerpt: as §1

The target in a further assay is HDAC3 (Homo sapiens, UniProt O15379). Kind of assay: Activity on Boc-L-Lys(ε-trifluoroacetyl)-MCA compared with Biomol standard substrate, HDAC3. The assay is classed as biochemical. Particulars: HDAC3, FIG. 5.
Chain of HDAC3 (O15379 whole entry): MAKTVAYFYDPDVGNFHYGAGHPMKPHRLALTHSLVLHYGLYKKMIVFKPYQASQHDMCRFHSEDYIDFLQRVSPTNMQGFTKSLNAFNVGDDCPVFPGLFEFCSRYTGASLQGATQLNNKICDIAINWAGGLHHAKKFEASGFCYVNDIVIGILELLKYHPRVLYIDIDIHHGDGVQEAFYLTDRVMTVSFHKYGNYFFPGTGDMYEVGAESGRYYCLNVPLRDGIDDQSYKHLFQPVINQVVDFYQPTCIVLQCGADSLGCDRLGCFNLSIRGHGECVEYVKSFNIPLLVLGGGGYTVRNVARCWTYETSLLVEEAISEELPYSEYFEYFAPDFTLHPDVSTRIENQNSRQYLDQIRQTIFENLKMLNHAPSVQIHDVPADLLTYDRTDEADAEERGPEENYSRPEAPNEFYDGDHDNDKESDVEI
Chain of HDAC3 (Q9Y618 whole entry partner): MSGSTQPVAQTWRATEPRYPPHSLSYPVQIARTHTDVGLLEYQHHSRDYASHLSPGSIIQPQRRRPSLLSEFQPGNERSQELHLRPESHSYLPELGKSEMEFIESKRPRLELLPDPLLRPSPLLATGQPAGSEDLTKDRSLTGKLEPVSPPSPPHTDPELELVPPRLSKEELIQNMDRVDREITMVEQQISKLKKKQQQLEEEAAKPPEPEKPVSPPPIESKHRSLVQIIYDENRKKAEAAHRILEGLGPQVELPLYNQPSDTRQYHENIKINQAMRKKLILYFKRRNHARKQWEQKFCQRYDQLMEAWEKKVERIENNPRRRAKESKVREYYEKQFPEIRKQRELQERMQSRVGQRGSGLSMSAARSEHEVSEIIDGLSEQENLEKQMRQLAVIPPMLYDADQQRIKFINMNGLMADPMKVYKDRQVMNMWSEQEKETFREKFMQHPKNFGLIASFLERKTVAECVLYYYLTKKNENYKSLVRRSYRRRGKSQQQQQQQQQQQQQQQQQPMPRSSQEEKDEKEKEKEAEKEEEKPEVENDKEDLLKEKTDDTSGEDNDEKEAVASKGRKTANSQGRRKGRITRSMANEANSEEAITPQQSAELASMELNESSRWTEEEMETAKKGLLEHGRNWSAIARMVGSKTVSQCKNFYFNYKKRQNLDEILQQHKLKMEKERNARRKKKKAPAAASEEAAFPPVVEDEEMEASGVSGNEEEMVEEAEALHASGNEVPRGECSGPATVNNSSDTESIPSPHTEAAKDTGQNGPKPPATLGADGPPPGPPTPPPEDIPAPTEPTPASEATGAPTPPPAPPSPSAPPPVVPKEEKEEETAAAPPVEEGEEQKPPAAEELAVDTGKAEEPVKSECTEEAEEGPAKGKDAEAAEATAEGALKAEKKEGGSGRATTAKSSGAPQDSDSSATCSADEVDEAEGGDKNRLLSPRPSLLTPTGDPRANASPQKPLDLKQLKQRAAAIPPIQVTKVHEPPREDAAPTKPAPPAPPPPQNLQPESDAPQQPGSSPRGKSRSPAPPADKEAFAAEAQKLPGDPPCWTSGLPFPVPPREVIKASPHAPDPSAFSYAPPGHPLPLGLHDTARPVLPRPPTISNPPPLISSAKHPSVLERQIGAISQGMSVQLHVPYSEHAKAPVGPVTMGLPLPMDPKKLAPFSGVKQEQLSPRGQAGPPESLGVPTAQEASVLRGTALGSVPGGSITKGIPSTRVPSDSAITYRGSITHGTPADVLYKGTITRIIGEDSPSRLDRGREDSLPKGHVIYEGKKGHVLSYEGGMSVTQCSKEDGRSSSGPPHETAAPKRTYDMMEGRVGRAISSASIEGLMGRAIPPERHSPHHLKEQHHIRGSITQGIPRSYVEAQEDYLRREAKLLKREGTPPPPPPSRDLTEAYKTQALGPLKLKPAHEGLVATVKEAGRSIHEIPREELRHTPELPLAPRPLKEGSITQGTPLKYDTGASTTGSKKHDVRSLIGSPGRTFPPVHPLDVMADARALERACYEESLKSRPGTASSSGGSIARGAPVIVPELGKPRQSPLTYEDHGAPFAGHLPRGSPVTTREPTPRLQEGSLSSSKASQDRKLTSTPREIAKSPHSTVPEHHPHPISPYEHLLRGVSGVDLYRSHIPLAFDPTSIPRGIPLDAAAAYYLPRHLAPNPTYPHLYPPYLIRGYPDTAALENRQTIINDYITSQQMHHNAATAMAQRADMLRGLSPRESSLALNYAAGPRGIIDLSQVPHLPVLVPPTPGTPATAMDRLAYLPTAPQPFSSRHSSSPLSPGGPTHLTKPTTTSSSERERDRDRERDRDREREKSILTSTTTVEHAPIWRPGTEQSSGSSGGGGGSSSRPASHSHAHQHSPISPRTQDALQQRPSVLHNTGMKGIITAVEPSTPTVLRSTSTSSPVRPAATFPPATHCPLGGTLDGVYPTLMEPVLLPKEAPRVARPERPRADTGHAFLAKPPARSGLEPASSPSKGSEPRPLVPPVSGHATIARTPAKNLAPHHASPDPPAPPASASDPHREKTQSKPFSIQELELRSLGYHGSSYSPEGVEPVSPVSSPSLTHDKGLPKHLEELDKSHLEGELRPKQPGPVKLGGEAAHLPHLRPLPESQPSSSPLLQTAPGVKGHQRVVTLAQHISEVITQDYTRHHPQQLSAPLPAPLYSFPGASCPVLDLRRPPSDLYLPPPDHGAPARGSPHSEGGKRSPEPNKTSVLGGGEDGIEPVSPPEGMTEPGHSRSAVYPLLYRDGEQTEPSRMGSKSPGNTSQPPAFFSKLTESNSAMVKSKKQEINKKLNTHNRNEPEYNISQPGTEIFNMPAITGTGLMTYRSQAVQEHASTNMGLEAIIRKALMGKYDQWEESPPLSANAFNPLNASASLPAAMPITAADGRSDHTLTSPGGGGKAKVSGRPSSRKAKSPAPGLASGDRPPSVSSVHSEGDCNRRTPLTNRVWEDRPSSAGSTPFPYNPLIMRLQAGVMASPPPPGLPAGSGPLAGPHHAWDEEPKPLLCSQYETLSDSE
Excerpt: as §1

For another assay, the target named is HDAC1 (Homo sapiens, UniProt Q13547). Put plainly: Activity on Boc-L-Lys(ε-trifluoroacetyl)-MCA compared with Biomol standard substrate, HDAC1. The class given is biochemical. Conditions: HDAC1, FIG. 5.
Chain of HDAC1 (Q13547 whole entry): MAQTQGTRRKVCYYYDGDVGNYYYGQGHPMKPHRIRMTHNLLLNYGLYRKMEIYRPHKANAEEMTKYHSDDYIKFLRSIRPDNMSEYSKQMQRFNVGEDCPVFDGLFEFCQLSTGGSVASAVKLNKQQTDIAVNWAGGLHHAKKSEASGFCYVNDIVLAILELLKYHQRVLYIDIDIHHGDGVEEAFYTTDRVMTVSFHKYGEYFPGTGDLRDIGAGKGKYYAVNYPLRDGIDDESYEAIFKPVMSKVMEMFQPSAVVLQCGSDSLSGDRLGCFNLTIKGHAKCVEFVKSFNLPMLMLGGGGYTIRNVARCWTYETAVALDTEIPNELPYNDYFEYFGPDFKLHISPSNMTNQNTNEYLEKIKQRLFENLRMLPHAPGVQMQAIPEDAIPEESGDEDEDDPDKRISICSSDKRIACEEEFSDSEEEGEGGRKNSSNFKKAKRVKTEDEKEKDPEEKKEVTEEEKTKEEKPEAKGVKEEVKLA
Excerpt: as §1

Assay [4] has as its target T1, HDAC4-CD. Put plainly: Activity on Boc-L-Lys(ε-trifluoroacetyl)-MCA compared with Biomol standard substrate, HDAC4-CD. The assay is classed as biochemical. Particulars: FIG. 5.
Excerpt: as §1

Assay [5] addresses T3, HDAC8. Conditions: substrate of (recombinant) human HDAC8; cited from earlier work.
Assay [6] deals with HDAC4-FLAG. Put plainly: Enzymatic activity of HDAC4-FLAG, inhibition (Biomol assay kit and histone substrates). The assay is classed as biochemical. Conditions: FIG. 2.

In the case of `CC(=O)NCCCC[C@H](NC(=O)OC(C)(C)C)C(=O)Nc1ccc2c(C)cc(=O)oc2c1` [Boc-L-Lys(ε-acetyl)-MCA, reference compound], the Km in the assay on HDAC from rat liver (substrate of HDAC from rat liver (mixture of HDAC1, 2 and 3)) is 3.7 µM.

For the compound `O=C(/C=C/c1ccc(CN(CCO)CCc2c[nH]c3ccccc23)cc1)NO` [LAQ824], the “inhibition of HDAC4-CD activity on Lys-Trifluoro substrate” value against HDAC4-CD [1] is “inhibited”. Further, the “binding to HDAC4-FLAG” value on HDAC4-FLAG [2] was “able to significantly and specifically bind”.

With `Cc1cc(=O)oc2ccc(NC(=O)[C@H](CCCCNC(=O)C(F)(F)F)NC(=O)OC(C)(C)C)cc12` [Boc-L-Lys(ε-trifluoroacetyl)-MCA, tert-Butyl [(1S)-5-(trifluoroacetylamino)-1-[[(4-methyl-2-oxo-2H-1-benzopyran-6-yl)amino]carbonyl]pentyl]-carbamic Acid Ester], the “enzyme activity on substrate compared with Biomol standard substrate” value is recorded as “work better” at HDAC8 [3]; “did not work” at HDAC6; “works with the same efficiency” at HDAC3; “did not work” on HDAC1; “work better” on HDAC4-CD [4]. Further, the “conversion of substrate by rat liver HDAC” value with HDAC from rat liver (rat liver HDAC) is given as “did not convert”. Further, the Km on HDAC8 [5] was 247 µM.

Regarding `Nc1ccccc1NC(=O)c1ccc(CNC(=O)OCc2cccnc2)cc1` [MS27-275], the inhibition constants entry with HDAC4-FLAG [6] is “good inhibition constants”.
